Reference: patent US5366983A, “Use of quaternary ammonium compounds to remove salmonella contamination from meat products” (The Board of Trustees of The University of Arkansas, priority 1992, dated 1994)

Columns and labels:
[1] = system: Salmonella typhimurium on chicken skin; assay: Effect of surfactants on Salmonella attached to chicken skin, drumsticks (Tables F1-F4)
[2] = system: Salmonella typhimurium TA98; assay: Salmonella reversion assay after heating at 205° C., TA98; assay type: cell-based; details: for Revertants/plate: heated at 205° C.
Protocol: Test strains TA98 and TA100 were used. Again, mutagenicities were determined both in the absence and in the presence of the mammalian liver S9 activating system.
A response that was two times that of the solvent control was considered a positive response.

[3] = system: Salmonella typhimurium TA98; assay: Salmonella reversion assay, TA98
Protocol: Test strains TA98 and TA100 were obtained from Bruce N. Ames (University of California, Berkley, Calif.). Mutagenicities were determined both in the absence of and in the presence of a mammalian liver S9 activating system. S9 is the 9000×g supernatant prepared from liver homogenates from Aroclor 1254 stimulated male Sprague Dawley rats. The S9 was purchased from Molecular Toxicology, Inc. (Anapolis, Md.).
Bacterial broth cultures were grown overnight at 37° with shaking in Oxoid Broth #2. For assays in the absence of S9, a 0.5 ml aliquot of 100 mM Sodium Phosphate Buffer, pH 7.4, was added to sterile 13×100 mm capped culture tubes. For assays in the presence of S9, a 0.5 ml aliquot of 10% S9 mix was added. The S9 mix consisted of 8 mM magnesium chloride, 33 mM potassium chloride, 5 mM glucose-6-phosphate, 4 mM NADP, 100 mM sodium phosphate, pH 7.4 and S9 in a concentration of approximately 1.46 mg protein/ml.
The culture tubes were placed in an ice bath and 0.1 ml of the bacterial suspension and 0.1 ml of a DMSO solution of the test compound were added. The mixture was vortexed gently and incubated at 37° for 20 minutes with shaking in a water bath. Molten top agar (2.0 ml) containing 0.5 mM histidine HCl and 0.5 mM biotin were added, and the mixture was vortexed gently and poured onto a minimal glucose plate. After allowing the agar to solidify, the plates were inverted and placed in a 37° incubator in the dark for 48 hours. The revertant (mutant) colonies were counted and the background lawn was examined on all plates. A response that was two times that of the DMSO solvent control was considered a positive response.

In the case of `CCCCCCCCCCCCCCCC[n+]1ccccc1` [CPC, cetylpyridinium chloride], the “Enrichment, chicken legs out of ten” value ([1]; 0.1%, 4° C.) is reported as 8/10, the “Rinse H2O” value ([1]; 0.1%, 4° C.) is reported as 0 CFU/ml and the “Surfactant Solution” value ([1]; 0.1%, 4° C.) is reported as 0 CFU/ml. The “Swabs, chicken legs producing the notated number of colonies” value (“Swabs … of colonies” for short) ([1]; 0.1%, 4° C.) was 8/10, the “Swabs, colonies” value ([1]; 0.1%, 4° C.) was “+ (1-10)” and the “Wash H2O, chicken legs producing the notated number of colonies” value (“Wash H2O … of colonies” below) ([1]; 0.1%, 4° C.) was 8/10. The “Wash H2O, colonies” value ([1]; 0.1%, 4° C.) was “+ (1-10)”, the “Enrichment, chicken legs out of ten” value ([1]; 0.1%, 25° C.) was 0/10 and the “Rinse H2O” value ([1]; 0.1%, 25° C.) was 0 CFU/ml. For the same molecule, the “Surfactant Solution” value ([1]; 0.1%, 25° C.) was 0 CFU/ml, the “Swabs … of colonies” value ([1]; 0.1%, 25° C.) was 7/10 and the “Swabs, colonies” value ([1]; 0.1%, 25° C.) was “+ (1-10)”. The “Wash H2O … of colonies” value ([1]; 0.1%, 25° C.) was 8/10, the “Wash H2O, colonies” value ([1]; 0.1%, 25° C.) was “++ (11-100)” and the “Enrichment, chicken legs out of ten” value ([1]; 0.5%, 4° C.) was 9/10. The “Rinse H2O” value ([1]; 0.5%, 4° C.) was 0 CFU/ml, the “Surfactant Solution” value ([1]; 0.5%, 4° C.) was 0 CFU/ml and the “Swabs … of colonies” value ([1]; 0.5%, 4° C.) was 9/10. The “Swabs, colonies” value ([1]; 0.5%, 4° C.) was “+ (1-10)”, the “Wash H2O … of colonies” value ([1]; 0.5%, 4° C.) was 7/10 and the “Wash H2O, colonies” value ([1]; 0.5%, 4° C.) was “+ (1-10)”. The “Enrichment, chicken legs out of ten” value ([1]; 1.0%, 4° C.) was 5/10, the “Rinse H2O” value ([1]; 1.0%, 4° C.) was 0 CFU/ml and the “Surfactant Solution” value ([1]; 1.0%, 4° C.) was 0 CFU/ml. The “Swabs … of colonies” value ([1]; 1.0%, 4° C.) was 5/10, the “Swabs, colonies” value ([1]; 1.0%, 4° C.) was “+ (1-10)” and the “Wash H2O … of colonies” value ([1]; 1.0%, 4° C.) was 9/10. The “Wash H2O, colonies” value ([1]; 1.0%, 4° C.) was “+ (1-10)”, the “Enrichment, chicken legs out of ten” value ([1]; .01%, 25° C.) was 10/10 and the “Rinse H2O” value ([1]; .01%, 25° C.) was “+ (1-10)”. For the same molecule, the “Surfactant Solution” value ([1]; .01%, 25° C.) was 0 CFU/ml, the “Swabs … of colonies” value ([1]; .01%, 25° C.) was 9/10 and the “Swabs, colonies” value ([1]; .01%, 25° C.) was “++ (11-100)”. The “Wash H2O … of colonies” value ([1]; .01%, 25° C.) was 10/10, the “Wash H2O, colonies” value ([1]; .01%, 25° C.) was “+++ (101-300)” and the “Enrichment, chicken legs out of ten” value ([1]; .05%, 25° C.) was 7/10. For the same molecule, the “Rinse H2O” value ([1]; .05%, 25° C.) was 0 CFU/ml, the “Surfactant Solution” value ([1]; .05%, 25° C.) was 0 CFU/ml and the “Swabs … of colonies” value ([1]; .05%, 25° C.) was 9/10. For the same molecule, the “Swabs, colonies” value ([1]; .05%, 25° C.) was “+ (1-10)”, the “Wash H2O … of colonies” value ([1]; .05%, 25° C.) was 10/10 and the “Wash H2O, colonies” value ([1]; .05%, 25° C.) was “++ (11-100)”. For the same molecule, the Revertants/plate ([2]; TA98, +S9, 0.1 μg/plate) was 26 ± 4 Revertants/plate, the Revertants/plate ([2]; TA98, +S9, 1.0 μg/plate) was 20 ± 1 Revertants/plate and the Revertants/plate ([2]; TA98, +S9, 5.0 μg/plate) was 25 ± 4 Revertants/plate. The Revertants/plate ([2]; TA98, +S9, 10.0 μg/plate) was 22 ± 3 Revertants/plate, the Revertants/plate ([2]; TA98, -S9, 0.1 μg/plate) was 16 ± 3 Revertants/plate and the Revertants/plate ([2]; TA98, -S9, 1.0 μg/plate) was 20 ± 5 Revertants/plate. For the same molecule, the Revertants/plate ([2]; TA98, -S9, 5.0 μg/plate) was 22 ± 3 Revertants/plate, the Revertants/plate ([2]; TA98, -S9, 10.0 μg/plate) was 25 ± 3 Revertants/plate and the “mutagenicity after heating in vegetable oil (in words)” value ([2]; TA98, absence or presence of S9, all concentrations tested) was “did not produce substances which are mutagenic”. The Revertants/plate ([3]; TA98, +S9, 1 μg/plate) was 25 ± 2 Revertants/plate, the Revertants/plate ([3]; TA98, +S9, 5 μg/plate) was 28 ± 1 Revertants/plate and the Revertants/plate ([3]; TA98, +S9, 10 μg/plate) was 25 ± 3 Revertants/plate. It also gave a Revertants/plate ([3]; TA98, +S9, 20 μg/plate) of 28 ± 2 Revertants/plate, a Revertants/plate ([3]; TA98, +S9, 40 μg/plate) of 30 ± 1 Revertants/plate and a Revertants/plate ([3]; TA98, +S9, 50 μg/plate) of 35 ± 6 Revertants/plate. The Revertants/plate ([3]; TA98, -S9, 1 μg/plate) was 24 ± 3 Revertants/plate, the Revertants/plate ([3]; TA98, -S9, 5 μg/plate) was 18 ± 4 Revertants/plate and the “mutagenicity (in words)” value ([3]; TA98, absence of S9, low concentrations) was “nonmutagenic”. For the same molecule, the “mutagenicity and cytotoxicity (in words)” value ([3]; TA98, presence of S9) was “neither mutagenic nor cytotoxic”.
